According to PubChem BioAssay AID2165 (The Scripps Research Institute Molecular Screening Center, 2009):
Active and inactive are the calls of the source. No stated cut-off is given here; in the data, active means IC50 below about 9 µM; inactive means the rest.

Molecular target: Tyrosine-protein kinase JAK2 (Homo sapiens) (UniProt O60674)
Assay: JAK2V617F project follow-up: kinase, reporter, cytotoxicity – HEL and Ba/F3 cells, late-stage follow-up (AID 2165)
Details: JAK2V617F panel: kinase, IRF1 reporter

Chain of Tyrosine-protein kinase JAK2 (Homo sapiens) (O60674 whole entry, looked up, change not shown): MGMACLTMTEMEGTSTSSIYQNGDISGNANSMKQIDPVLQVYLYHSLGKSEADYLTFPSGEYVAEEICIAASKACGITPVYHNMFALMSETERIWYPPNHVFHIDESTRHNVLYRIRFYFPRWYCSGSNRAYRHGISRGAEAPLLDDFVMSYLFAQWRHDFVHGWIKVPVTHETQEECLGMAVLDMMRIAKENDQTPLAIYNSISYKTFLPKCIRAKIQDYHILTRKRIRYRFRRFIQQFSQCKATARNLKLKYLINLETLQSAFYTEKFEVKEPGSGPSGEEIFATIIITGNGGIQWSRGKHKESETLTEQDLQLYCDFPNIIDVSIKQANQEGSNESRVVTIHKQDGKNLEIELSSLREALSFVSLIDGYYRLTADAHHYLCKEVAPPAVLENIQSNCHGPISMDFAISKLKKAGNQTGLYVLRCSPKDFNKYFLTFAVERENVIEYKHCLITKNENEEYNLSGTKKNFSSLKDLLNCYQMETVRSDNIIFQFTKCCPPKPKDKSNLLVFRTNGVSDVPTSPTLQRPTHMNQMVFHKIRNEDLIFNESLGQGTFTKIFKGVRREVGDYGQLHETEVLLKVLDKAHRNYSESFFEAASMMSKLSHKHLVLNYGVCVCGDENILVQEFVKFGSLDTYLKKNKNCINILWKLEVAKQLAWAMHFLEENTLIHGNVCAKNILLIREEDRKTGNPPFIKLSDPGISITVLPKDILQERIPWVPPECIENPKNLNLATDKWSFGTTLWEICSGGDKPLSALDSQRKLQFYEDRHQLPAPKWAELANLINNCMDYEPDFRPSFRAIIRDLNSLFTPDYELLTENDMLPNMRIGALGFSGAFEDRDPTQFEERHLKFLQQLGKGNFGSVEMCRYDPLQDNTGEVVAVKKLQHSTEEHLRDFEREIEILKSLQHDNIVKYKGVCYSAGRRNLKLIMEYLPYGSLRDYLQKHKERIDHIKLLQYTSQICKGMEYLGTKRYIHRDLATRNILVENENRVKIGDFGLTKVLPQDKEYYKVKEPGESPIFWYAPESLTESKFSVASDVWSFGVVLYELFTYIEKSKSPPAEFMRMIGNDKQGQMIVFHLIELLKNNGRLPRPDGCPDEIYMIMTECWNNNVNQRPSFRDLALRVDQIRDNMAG

Row | Compound | IC50 (Ba/F3, irf1 reporter) [µM] | IC50 (HEL, irf1 reporter) | IC50 (JAK2V617F) [µM]
1 | O=c1oc2ccc(Cl)cc2nc1/C=C(\O)c1ccco1 | 5.55 | 4.75 µM | –
2 | COc1ccc(-n2nnnc2SCC(=O)c2ccc(O)c(O)c2)cc1 | 6.22 | 25.5 µM | –
3 | CC1CCCC(NC(=O)NC(=O)CCl)C1C (centres undefined) | 3.19 | 31.1 µM | –
4 | CN(C)C(=S)SSC(=S)N(C)C | 2.38 | 13.5 µM | –
5 | Cc1[nH]c(=O)c(C(=O)C=Cc2cccc(Br)c2)c2c1CCCC2 | 0.59 | 1.13 µM | 0.55
6 | O=C(CCl)N=c1sccn1Cc1cccc2ccccc12 | 7.24 | 0.202 µM | –
7 | Cc1cccc(OCC(=O)Nc2cc(C)ccc2O)c1 | 3.94 | > 40 µM (inactive) | –
8 | O=C(/C(=N/N=C/c1ccc(O)c(O)c1)c1ccccc1)c1ccccc1 | 6.61 | 9.46 µM | –
9 | Clc1ccc(-n2nnnc2Sc2ncnc3sccc23)cc1 | 1.19 | 23.3 µM | –
